From US20020151467A1 (priority 2000, published 2002)

Key:
Assay type in all cases: in vivo
nondiabetic rats [1] = assay: Transdermal insulin (Dermulin) vs intraperitoneal insulin injection, blood glucose in rats; details: for Percent of glucose reduction: Group 4: intraperitoneal 12.5 u insulin
Procedure: All rats weighed 50-80 gms, aged 1 month. Group 1 (control—placebo): 6 rats, Group 2 (Dermulin™, 12.5 u): 5 rats, Group 3 (Dermulin™, 25 u): 5 rats, Group 4 (intraperitoneal injection): 5 rats.
(§1) All rats were fasted 2 hrs before experiments. They were lightly anesthesized by ether. Neck skin was dissected and jugular vein was exposed. 0.1 ml of blood was drawn at time 0, 5, 10, 15, 30, 60, 90, 120, 150, 180, 210, 240, 270, 300 minutes for glucose measurement by Abbott's Precision glucose monitor. Hair was shaved from the abdomen. Group 2 and Group3 had 12.5 u and 25 u of Dermulin™ applied to the abdominal skin respectively.
All data were analyzed using SAS system, Version 6.12. in 2 ways: 1) Simultaneous comparison of multiple groups by Dunnett's t test at 5% significance level. 2) Comparison of slopes of the glucose reduction rate by repeated measures analysis of variance method by the “Mixed Procedure” of the SAS system software.

nondiabetic rats [2] = assay: Hypoglycemic efficacy of oral insulin (Musulin) compared to subcutaneous and intraperitoneal injections in rats; details: 1.67 unit every 5 minutes
Procedure: All rats weighed 50-80 gms, age of the rats was 1 month. Group 1 (control—placebo): 6 rats; Group 2 (Musulin™): 6 rats; Group 3 (Musulin™): 5 rats; Group 4 (Musulin™): 5 rats; Group 5 (intraperitoneal injection): 5 rats; and Group 6 (subcutaneous injection): 5 rats. All rats were fasted 2 hrs before experiments. They were lightly anesthesized by ether. Neck skin was dissected and the jugular vein was exposed. 0.1 ml of blood was drawn at times 0, 5, 10,15, 30, 60, 90, 120, 150, 180, 210, 240, 270, 300 minutes for glucose measurement by Abbott's Precision glucose monitor. In order to ensure the maximal exposure and absorption of Musulin™ in the rats' tiny oral cavities, the rats were fed constant amounts at preset time periods. […] Group 3 received 3.33 units and Group 4 received 6.67 units every 5 minutes.
All data were analysed using SAS system, Version 6.12. in 2 ways: 1) Simultaneous comparison of multiple groups by Dunnett's t test at 5% significance level. 2) Comparison of slopes of the glucose reduction rate by repeated measures analysis of variance method by the “Mixed Procedure” of the SAS system software.

nondiabetic rats [3] = assay: Transdermal insulin (Dermulin) vs subcutaneous insulin injection, blood glucose in rats; details: for Percent of glucose reduction compared to initial levels: Group 4: subcutaneous 12.5 u insulin
Procedure: All rats weighed 50-80 gms, aged 1 month. Group 1 (control—placebo): 6 rats, Group 2 (Dermulin™, 12.5 u): 5 rats, Group 3 (Dermulin™, 25 u): 5 rats, Group 4 (subcutaneous injection): 5 rats.
as §1, with “Group 3” for “Group3”
All data were analyzed using SAS system, Version 6.12. in 2 ways: 1) Simultaneous comparison of multiple groups by Dunnett's t test at 5% significance level. 2) Comparison of slopes of the glucose reduction rate by repeated measures analysis of variance method by the” Mixed Procedure” of the SAS system software.

[4] = Group 4: single intraperitoneal injection of 12.5 u insulin
[5] = Group 5: intraperitoneal insulin injection
[6] = Group 4: single subcutaneous injection of 12.5 u insulin
[7] = Group 6: subcutaneous insulin injection

intraperitoneal injection: injection control: insulin given intraperitoneally
Percent of glucose reduction (nondiabetic rats [1]; at 60 minutes): 26.1 (s.d. 13.4) Percent
Percent of glucose reduction (nondiabetic rats [1]; at 120 minutes): 16.5 (s.d. 13) Percent
Percent of glucose reduction (nondiabetic rats [1]; at 180 minutes): 25.8 (s.d. 14.1) Percent
Percent of glucose reduction (nondiabetic rats [1]; at 300 minutes): 27.8 (s.d. 33.6) Percent
Rate of glucose reduction at the slope (nondiabetic rats [1]; [4]): -0.5 mg/min
Statistically significant onset of action (nondiabetic rats [1]; [4]): 5 min
Death from hypoglycemia within 300 minutes (nondiabetic rats [2]; [5]): 80%
Rate of glucose reduction at the maximal slope (nondiabetic rats [2]; [5]): -0.54 mg/min
Statistically significant onset of action (nondiabetic rats [2]; [5]): 10 min
time for 50% rats to achieve 50% glucose reductions (nondiabetic rats [2]; [5]): 13 min
Percent mean reduction of glucose compared to initial levels (nondiabetic rats [2]; Group 5: intraperitoneal insulin injection, at 60 minutes): 30.4 (s.d. 3.8) Percent
Percent mean reduction of glucose compared to initial levels (nondiabetic rats [2]; Group 5: intraperitoneal insulin injection, at 120 minutes): 18.7 (s.d. 15.2) Percent
Percent mean reduction of glucose compared to initial levels (nondiabetic rats [2]; Group 5: intraperitoneal insulin injection, at 300 minutes): 0 (s.d. 0) Percent

subcutaneous injection: injection control: insulin (Humalog) by subcutaneous injection
Rate of glucose reduction at the slope between 30-120 min. (nondiabetic rats [3]; [6]): -0.5 mg/min
Statistically significant onset of action (nondiabetic rats [3]; [6]): 5 min
Percent of glucose reduction compared to initial levels (nondiabetic rats [3]; at 60 minutes): 28 (s.d. 13.4) Percent
Percent of glucose reduction compared to initial levels (nondiabetic rats [3]; at 120 minutes): 21.9 (s.d. 13) Percent
Percent of glucose reduction compared to initial levels (nondiabetic rats [3]; at 180 minutes): 17.2 (s.d. 14.1) Percent
Percent of glucose reduction compared to initial levels (nondiabetic rats [3]; at 300 minutes): 0%
Death from hypoglycemia within 300 minutes (nondiabetic rats [2]; [7]): 100%
Rate of glucose reduction at the maximal slope (nondiabetic rats [2]; [7]): -0.51 mg/min
Statistically significant onset of action (nondiabetic rats [2]; [7]): 10 min
time for 50% rats to achieve 50% glucose reductions (nondiabetic rats [2]; [7]): 15 min
Percent mean reduction of glucose compared to initial levels (nondiabetic rats [2]; Group 6: subcutaneous insulin injection, at 60 minutes): 39.8 (25.5) Percent
Percent mean reduction of glucose compared to initial levels (nondiabetic rats [2]; Group 6: subcutaneous insulin injection, at 120 minutes): 25.5 (s.d. 31.7) Percent
Percent mean reduction of glucose compared to initial levels (nondiabetic rats [2]; Group 6: subcutaneous insulin injection, at 300 minutes): 41.1%
